The source of these data is patent publication US8906884B2, “Method of treating graft-rejection using dextran sulfate” (TX Medic AB, priority 2002, dated 2014).

Like-named read-outs stand apart in the source and are kept apart here.

Assay [1] deals with API graft in diabetic athymic mice. The settings on record: implantation site liver, i.v. treatment, n = 5; duration of normoglycemia. Here is the method:
Diabetes was induced in athymic mice by intravenous (i.v.) injection of steptozotocin from Sigma Chemicals (Palo Alto, Calif., USA) according to Wennberg et al.. The steptozotocin dose was 250 mg/kg body weight for the athymic mice. An animal was considered diabetic if its blood glucose (B-glucose) level exceeded 20 mmol/l (>360 mg/dl) for 2 or more consecutive days.
After being cultured for 4 days, 5 μl of API (˜5000 IEQs) from five isolations were transplanted into the liver via the portal vein of 11 male inbred diabetic athymic mice, which were anesthetized during surgery with isoflurene. […] Six (untreated) mice were injected with an equivalent volume of saline in the same manner.
Blood glucose levels were measured in blood obtained from tails of recipients using a Glucometer Elite® B-glucose measuring instrument (Bayer AB, Gothenburg, Sweden). Measurements were taken daily before 12 am and expressed as mmol/l (1 mmol/l≈18 mg/dl). Loss of graft function was considered to have occurred if B-glucose levels exceeded 11.1 mmol/l (>200 mg/dl) for 2 or more consecutive days. Post-transplant duration of normoglycemia (<200 mg/dl) was defined as the graft survival period.

Assay [2] relates to complement system. The settings on record: FIG. 3, in words. Here is the method:
At 5, 10, 15, 30, 45, and 60 min after serum incubation at 37° C., 100 μl of serum was transferred to tubes containing 10 mM EDTA. These samples were stored at −70° C. before analysis of the complement components C3a and sC5b-9.
Filled bars represent generation of C3a and unfilled correspond to sC5b-9.

Regarding “Low molecular weight dextran sulfate [LMW-DS]”, the “Mean graft survival” value in assay [1] was found to be 8.8 ± 1.9 days. In addition, the “Generation of C3a and sC5b-9 in human serum” value in assay [2] (0.01 mg/ml) is listed as “increased generation”; in assay [2] (1 mg/ml), “inhibitory effect”.
